Results on twelve compounds are retold here after ChEMBL document CHEMBL5465560, “Selectivity Literature for EUbOPEN Chemogenomic Library” (2024).

The target of assay [1] is Casein kinase I isoform gamma-3 (Homo sapiens) (UniProt Q9Y6M4). The assay can be described thus: Selectivity interaction (ProQinase) EUB0000171b CSNK1G3.
Assay [2] addresses Mitogen-activated protein kinase kinase kinase 21 (Homo sapiens) (UniProt Q5TCX8). In words: Selectivity interaction (ProQinase) EUB0000171b MAP3K21.
For assay [3], the target named is BDNF/NT-3 growth factors receptor (Homo sapiens) (UniProt Q16620). The assay can be described thus: Selectivity interaction (ProQinase) EUB0000171b NTRK2.
BDNF/NT-3 growth factors receptor (Homo sapiens), sequence (Q16620 32-822 limits assumed): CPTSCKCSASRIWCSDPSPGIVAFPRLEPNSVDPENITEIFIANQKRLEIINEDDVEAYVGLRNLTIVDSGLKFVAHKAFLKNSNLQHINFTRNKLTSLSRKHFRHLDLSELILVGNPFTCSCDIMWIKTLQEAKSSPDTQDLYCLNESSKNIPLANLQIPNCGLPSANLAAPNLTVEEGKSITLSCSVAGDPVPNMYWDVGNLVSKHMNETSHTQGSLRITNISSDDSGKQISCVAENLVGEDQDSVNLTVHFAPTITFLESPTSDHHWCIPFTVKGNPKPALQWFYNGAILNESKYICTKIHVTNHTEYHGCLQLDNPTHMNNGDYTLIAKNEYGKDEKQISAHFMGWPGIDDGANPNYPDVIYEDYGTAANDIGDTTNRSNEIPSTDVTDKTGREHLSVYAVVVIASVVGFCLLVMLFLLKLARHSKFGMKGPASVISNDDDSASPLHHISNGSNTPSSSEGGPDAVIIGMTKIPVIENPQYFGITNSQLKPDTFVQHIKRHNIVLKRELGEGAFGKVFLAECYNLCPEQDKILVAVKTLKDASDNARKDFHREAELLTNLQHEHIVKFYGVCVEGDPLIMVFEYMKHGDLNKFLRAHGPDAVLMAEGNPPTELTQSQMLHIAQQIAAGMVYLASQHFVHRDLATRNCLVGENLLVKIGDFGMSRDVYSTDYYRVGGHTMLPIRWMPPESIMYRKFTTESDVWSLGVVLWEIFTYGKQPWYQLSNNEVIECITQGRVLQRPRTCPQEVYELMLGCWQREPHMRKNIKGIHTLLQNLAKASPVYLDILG
For assay [4], the system named is RAF proto-oncogene serine/threonine-protein kinase (Homo sapiens), P04049 [Y340D,Y341D]. In words: Selectivity interaction (ProQinase) EUB0000171b RAF1.
RAF proto-oncogene serine/threonine-protein kinase (Homo sapiens), P04049 [Y340D,Y341D], sequence (P04049 whole entry Y340D/Y341D): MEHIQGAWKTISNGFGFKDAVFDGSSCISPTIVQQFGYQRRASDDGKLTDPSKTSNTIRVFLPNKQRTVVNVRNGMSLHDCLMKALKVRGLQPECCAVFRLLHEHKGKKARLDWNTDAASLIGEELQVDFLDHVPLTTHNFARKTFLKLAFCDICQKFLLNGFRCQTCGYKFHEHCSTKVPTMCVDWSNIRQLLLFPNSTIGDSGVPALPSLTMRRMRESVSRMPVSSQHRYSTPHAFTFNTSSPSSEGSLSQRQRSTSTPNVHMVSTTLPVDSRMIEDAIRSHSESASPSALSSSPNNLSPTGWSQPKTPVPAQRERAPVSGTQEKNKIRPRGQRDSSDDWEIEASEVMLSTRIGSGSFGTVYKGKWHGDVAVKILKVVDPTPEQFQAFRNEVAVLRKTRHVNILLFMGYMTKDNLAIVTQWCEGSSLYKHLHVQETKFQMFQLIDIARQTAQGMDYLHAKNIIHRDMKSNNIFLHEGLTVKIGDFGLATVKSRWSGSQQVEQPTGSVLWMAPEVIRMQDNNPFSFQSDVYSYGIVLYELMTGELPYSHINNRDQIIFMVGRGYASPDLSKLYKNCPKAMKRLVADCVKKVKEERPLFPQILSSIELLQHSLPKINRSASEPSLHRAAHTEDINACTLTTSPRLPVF
Assay [5] deals with T1, Serine/threonine-protein kinase Nek1 (Homo sapiens) (UniProt Q96PY6).
T1 sequence (whole entry): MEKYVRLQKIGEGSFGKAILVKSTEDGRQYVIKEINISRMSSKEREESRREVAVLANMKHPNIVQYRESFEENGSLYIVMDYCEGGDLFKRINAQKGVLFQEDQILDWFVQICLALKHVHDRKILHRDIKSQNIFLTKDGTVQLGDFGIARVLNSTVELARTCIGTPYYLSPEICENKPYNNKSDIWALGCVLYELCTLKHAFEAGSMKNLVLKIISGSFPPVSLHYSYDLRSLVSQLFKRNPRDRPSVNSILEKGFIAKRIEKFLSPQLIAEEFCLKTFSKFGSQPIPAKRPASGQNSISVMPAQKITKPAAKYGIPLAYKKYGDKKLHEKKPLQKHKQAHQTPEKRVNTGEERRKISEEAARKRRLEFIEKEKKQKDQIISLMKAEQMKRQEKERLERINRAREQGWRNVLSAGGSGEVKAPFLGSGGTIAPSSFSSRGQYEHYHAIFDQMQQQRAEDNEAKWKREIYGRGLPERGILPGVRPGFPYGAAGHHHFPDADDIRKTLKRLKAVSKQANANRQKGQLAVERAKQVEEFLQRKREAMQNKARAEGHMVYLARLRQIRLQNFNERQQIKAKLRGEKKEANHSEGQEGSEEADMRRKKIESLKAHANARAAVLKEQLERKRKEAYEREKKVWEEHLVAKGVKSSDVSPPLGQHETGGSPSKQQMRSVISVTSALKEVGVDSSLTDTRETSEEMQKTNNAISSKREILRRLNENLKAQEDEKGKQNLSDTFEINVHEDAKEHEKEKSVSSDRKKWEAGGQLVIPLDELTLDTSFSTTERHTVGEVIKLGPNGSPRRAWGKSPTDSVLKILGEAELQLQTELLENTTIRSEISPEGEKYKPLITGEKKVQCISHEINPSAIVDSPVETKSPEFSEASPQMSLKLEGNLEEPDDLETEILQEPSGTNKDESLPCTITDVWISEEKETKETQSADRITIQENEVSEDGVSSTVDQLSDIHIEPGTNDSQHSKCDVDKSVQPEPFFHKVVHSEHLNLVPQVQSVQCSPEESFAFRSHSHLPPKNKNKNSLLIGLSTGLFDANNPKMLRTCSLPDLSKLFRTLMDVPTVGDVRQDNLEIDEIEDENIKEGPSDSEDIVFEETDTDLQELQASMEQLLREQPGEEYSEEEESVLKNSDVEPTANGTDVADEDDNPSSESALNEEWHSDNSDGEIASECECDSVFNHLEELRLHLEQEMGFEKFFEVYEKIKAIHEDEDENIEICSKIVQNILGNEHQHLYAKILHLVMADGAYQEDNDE
The following applies: at 10 µM.

Assay [6] addresses Death-associated protein kinase 3 (Homo sapiens) (UniProt O43293). The assay can be described thus: Selectivity interaction (Kinase panel (DSF assay)) EUB0001558a DAPK3.
Assay [7] concerns the target Ribosomal protein S6 kinase alpha-1 (Homo sapiens, UniProt Q15418). The assay can be described thus: Selectivity interaction (Kinase panel (DSF assay)) EUB0001558a RPS6KA1. A general note: In DSF a fluorescence change marks the thermal transition of the protein.
The target in assay [8] is Activin receptor type-2B (Homo sapiens) (UniProt Q13705). In words: Selectivity interaction (Ambit KINOMEscan and KiNATiv profiling in Jurkat cells) EUB0000090b ACVR2B. Format: cell-based. The following applies: at 1 µM.
Assay [9] deals with Casein kinase I isoform gamma-2 (Homo sapiens) (UniProt P78368). The assay can be described thus: Selectivity interaction (KinomeScan (DiscoverX)) EUB0001079a CSNK1G2. The following applies: at 1 µM.
In assay [10] the target is Serine/threonine-protein kinase 10 (Homo sapiens) (UniProt O94804). The assay can be described thus: Selectivity interaction (KinomeScan (DiscoverX)) EUB0000092b STK10. Particulars: at 10 µM.
In assay [11] the target is Serine/threonine-protein kinase MARK1 (Homo sapiens) (UniProt Q9P0L2). In words: Selectivity interaction (KinomeScan (DiscoverX)) EUB0000655a MARK1. Particulars: at 10 µM.
Assay [12] addresses Leucine-rich repeat serine/threonine-protein kinase 2 (Homo sapiens, UniProt Q5S007). The assay can be described thus: Selectivity interaction (Adapta Assay) EUB0001632a LRRK2. The following applies: at 10 µM.
Assay [13] concerns the target DNA (cytosine-5)-methyltransferase 3A (Homo sapiens) (UniProt Q9Y6K1). Particulars: at 1 µM.
Assay [14] has as its target RAC-beta serine/threonine-protein kinase (Homo sapiens) (UniProt P31751). The assay can be described thus: Selectivity interaction (Kinase panel (Invitrogen)) EUB0000639a AKT2. Particulars: at 200 nM.
Assay [15] has as its target Serine/threonine-protein kinase MARK2 (Homo sapiens) (UniProt Q7KZI7). In words: Selectivity interaction (ActivX KiNativ screen (kinase selectivity in THP-1 cell lysates)) EUB0000639a MARK2. The format is subcellular. Particulars: lysate, at 1 µM.
For assay [16], the target named is Serine/threonine-protein kinase 38 (Homo sapiens) (UniProt Q15208). In words: Selectivity interaction (ActivX KiNativ screen (kinase selectivity in THP-1 cell lysates)) EUB0000639a STK38. Format: subcellular. The following applies: lysate, at 1 µM.
The target of assay [17] is T2, Tyrosine-protein kinase ABL1 (Homo sapiens, UniProt P00519). In words: Selectivity interaction (Kinase panel (enzymatic assay)) EUB0000595a ABL1.
T2 sequence (P00519 whole entry): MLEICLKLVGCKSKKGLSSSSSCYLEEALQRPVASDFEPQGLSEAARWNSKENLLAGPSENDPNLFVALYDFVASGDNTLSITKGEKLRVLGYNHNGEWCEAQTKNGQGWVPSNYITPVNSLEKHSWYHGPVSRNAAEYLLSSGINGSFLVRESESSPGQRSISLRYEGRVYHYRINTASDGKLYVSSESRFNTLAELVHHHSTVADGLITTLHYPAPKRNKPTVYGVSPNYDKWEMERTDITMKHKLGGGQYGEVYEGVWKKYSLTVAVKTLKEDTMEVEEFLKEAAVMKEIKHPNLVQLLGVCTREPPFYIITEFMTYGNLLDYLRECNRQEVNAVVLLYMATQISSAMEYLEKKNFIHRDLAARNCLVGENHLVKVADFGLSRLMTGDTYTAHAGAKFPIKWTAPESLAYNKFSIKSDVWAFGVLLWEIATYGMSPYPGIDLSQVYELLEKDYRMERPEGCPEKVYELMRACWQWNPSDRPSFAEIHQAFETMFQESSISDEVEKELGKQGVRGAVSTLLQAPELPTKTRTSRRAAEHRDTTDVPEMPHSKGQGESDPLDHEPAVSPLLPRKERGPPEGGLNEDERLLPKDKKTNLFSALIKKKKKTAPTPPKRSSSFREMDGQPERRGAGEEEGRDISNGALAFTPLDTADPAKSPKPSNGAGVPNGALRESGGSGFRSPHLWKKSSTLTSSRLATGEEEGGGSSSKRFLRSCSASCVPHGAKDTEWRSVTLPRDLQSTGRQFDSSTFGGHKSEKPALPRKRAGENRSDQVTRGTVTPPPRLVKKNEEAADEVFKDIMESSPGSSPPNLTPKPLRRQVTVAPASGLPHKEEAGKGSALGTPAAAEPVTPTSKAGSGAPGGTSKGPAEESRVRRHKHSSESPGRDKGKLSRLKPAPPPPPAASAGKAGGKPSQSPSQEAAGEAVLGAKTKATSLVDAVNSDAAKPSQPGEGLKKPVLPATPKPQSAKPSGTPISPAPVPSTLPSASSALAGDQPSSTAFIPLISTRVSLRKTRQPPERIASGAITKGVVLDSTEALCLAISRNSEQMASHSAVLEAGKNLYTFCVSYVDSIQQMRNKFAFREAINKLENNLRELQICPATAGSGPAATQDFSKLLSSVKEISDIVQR
The target in assay [18] is T2, Tyrosine-protein kinase ABL1. In words: Selectivity interaction (ActivX KiNativ screen (ex vivo kinase selectivity in human PBMCs)) EUB0001619a ABL1. The following applies: PBMC, at 1 µM. Format: cell-based.

A value given as a limit tells only on which side of the number the result lay.

Casein kinase I isoform gamma-3 (Homo sapiens), sequence (Q9Y6M4 whole entry, looked up, canonical isoform): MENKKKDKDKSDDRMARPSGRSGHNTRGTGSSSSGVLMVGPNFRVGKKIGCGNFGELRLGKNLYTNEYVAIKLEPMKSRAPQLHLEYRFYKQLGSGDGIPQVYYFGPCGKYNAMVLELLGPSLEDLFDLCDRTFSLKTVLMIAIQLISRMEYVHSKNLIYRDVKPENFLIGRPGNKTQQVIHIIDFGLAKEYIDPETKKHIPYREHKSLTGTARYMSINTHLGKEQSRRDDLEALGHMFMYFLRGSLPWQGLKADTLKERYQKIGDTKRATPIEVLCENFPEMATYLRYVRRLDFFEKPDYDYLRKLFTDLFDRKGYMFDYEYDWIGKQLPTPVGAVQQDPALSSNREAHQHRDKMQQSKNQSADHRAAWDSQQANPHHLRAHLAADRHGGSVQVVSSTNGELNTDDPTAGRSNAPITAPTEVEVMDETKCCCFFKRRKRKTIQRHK
Mitogen-activated protein kinase kinase kinase 21 (Homo sapiens), sequence (Q5TCX8 whole entry): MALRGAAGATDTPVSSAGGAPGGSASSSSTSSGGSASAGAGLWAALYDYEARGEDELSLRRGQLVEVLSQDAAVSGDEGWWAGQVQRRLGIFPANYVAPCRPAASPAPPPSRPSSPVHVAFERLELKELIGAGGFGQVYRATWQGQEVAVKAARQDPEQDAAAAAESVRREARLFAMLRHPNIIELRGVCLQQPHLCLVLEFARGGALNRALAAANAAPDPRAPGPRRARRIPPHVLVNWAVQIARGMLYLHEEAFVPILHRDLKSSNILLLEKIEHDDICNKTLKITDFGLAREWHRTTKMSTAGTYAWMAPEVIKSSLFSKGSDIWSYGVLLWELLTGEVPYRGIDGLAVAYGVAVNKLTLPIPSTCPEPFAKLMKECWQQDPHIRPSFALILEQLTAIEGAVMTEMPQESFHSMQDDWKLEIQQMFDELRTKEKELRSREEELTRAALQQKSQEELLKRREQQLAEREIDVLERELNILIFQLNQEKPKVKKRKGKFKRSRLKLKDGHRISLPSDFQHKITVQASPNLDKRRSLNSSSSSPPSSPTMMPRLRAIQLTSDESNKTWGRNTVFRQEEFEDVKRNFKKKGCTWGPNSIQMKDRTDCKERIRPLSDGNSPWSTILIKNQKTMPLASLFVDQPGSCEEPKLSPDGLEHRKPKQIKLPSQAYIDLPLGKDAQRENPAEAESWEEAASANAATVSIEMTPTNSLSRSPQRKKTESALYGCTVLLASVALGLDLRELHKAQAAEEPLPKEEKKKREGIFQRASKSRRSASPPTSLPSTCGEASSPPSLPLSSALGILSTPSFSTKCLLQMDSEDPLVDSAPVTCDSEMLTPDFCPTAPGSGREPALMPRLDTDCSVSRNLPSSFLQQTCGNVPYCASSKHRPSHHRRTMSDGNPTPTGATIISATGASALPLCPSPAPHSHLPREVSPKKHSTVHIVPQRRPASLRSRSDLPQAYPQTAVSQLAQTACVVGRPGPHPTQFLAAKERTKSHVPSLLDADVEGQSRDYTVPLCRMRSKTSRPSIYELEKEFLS
DNA (cytosine-5)-methyltransferase 3A (Homo sapiens), sequence (Q9Y6K1 whole entry, looked up): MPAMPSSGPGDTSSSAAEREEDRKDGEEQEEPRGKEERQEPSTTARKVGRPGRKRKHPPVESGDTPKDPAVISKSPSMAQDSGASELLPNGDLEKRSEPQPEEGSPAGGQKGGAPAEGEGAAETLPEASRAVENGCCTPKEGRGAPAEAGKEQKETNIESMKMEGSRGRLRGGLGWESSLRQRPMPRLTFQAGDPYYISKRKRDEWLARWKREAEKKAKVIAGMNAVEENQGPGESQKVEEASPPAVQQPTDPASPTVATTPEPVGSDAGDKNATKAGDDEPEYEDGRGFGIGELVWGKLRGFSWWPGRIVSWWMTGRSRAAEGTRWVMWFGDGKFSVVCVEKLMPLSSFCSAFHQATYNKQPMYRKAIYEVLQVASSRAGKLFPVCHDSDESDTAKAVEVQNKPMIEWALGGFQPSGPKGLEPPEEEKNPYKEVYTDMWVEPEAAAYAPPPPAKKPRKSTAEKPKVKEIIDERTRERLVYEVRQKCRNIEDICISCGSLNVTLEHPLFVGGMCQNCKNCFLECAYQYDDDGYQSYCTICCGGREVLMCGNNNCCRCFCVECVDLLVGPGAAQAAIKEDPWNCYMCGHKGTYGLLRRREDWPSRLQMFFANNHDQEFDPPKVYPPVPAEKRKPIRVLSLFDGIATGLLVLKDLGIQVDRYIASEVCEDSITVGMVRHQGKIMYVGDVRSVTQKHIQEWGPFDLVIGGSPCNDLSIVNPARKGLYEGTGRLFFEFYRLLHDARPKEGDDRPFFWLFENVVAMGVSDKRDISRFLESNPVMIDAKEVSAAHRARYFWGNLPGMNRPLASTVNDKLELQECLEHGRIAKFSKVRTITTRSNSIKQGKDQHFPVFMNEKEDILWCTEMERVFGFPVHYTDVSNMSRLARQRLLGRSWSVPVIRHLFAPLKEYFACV

For the compound `C=CC(=O)Nc1cccc(C(=O)Nc2ccc(Nc3cc(-c4[nH]c(SC)nc4C)ccn3)cc2)c1`, the % of control in [1] (at 1 µM) turned out to be 38%; in assay [1] (at 5 µM) it was 12%; in [2] (at 1 µM), 81%; in [2] (at 5 µM) it was 59%; in assay [3] (at 1 µM), 89%; in assay [3] (at 5 µM) it was 81%. The % of control in assay [4] (at 1 µM) came out at 96%; in [4] (at 5 µM), 92%. `Cc1cc([C@@H](C)Nc2ccccc2C(=O)O)c2nc(N3CCOCC3)cc(=O)n2c1` [AZD-6482] gave a % of control in assay [5] of 85%. As for `CC(C)(O)[C@H](F)CN1Cc2cc(NC(=O)c3cnn4cccnc34)c(N3CCOCC3)cc2C1=O`, the dTM was 1.8 K in assay [6] and -0.2 K in [7]. For `CN(C)C/C=C/C(=O)Nc1ccc(C(=O)N2CCCC(Nc3ncc(Cl)c(-c4c[nH]c5ccccc45)n3)C2)cc1` (configuration not stated), in assay [8], the % of control is 77%. For `Nc1cnc(N2CCc3cc(S(=O)(=O)Nc4c(F)cc(Cl)cc4F)cc(N4CCCC4=O)c32)nc1` [TP-020n], the % of control in assay [9] was determined as 88%.

Consider `CCC(=O)N1CCN(c2ccc(-n3c(=O)ccc4cnc5ccc(-c6cnc7ccccc7c6)cc5c43)cc2C(F)(F)F)CC1`, for which the % of control in [10] is 79%.

In [11], `CN(C)CCOc1ccc(-c2nc(-c3ccncc3)c(-c3ccc4c(c3)CC/C4=N\O)[nH]2)cc1` came in with a % of control of 100%. For `Cn1cc(-n2cnc3c(NCc4nc5cc(Cl)c(Cl)cc5[nH]4)nc(N4CCOCC4)nc32)cn1`, the % of inhibition in assay [12] turned out to be 100%. Compound `CNCCN1CCC(c2cc(CN(C)C(=O)c3cccc(Oc4ccccc4)c3)ccn2)CC1` came in with a % activity in [13] of over 90%.

As for `CC[C@@H]1[C@H](F)C(=O)N[C@@H]1COc1nccc2cc(C(N)=O)c(OC)cc12` [ZIMLOVISERTIB], the % of inhibition in assay [14] is 4.03%; in assay [15], 4.3%; in [16], 65.8%. As a reminder, the IC50 is the concentration that inhibits the measured activity by half. The compound `COCC(=O)NC/C=C/c1ccc2ncnc(Nc3ccc(Oc4ccc(C)nc4)c(C)c3)c2c1` [CP-724714] returned an IC50 in assay [17] of over 10 µM. `N#Cc1cccc(-c2c[nH]c3ncnc(N4CCOCC4)c23)c1`: the % of inhibition in [18] is -53%.
